Reference: the NIST ThermoML archive (doi:10.1021/acs.jced.6b00536)

Experiment: xn = mol fraction of the nth substance listed
Conditions: Gas, Frequency=0.05 MHz, Single path-length method, x2 = 0.056

FC(F)(F)C(F)(F)C(F)(F)F [octafluoropropane] + FC(F)(F)C(F)(F)F
Conditions	speed of sound [m/s]
252.6 K, 87.5 kPa	107.26
252.6 K, 102.5 kPa	106.66
252.6 K, 119.8 kPa	106.02
252.6 K, 143.2 kPa	105.14
252.6 K, 173.7 kPa	103.91
252.6 K, 201.7 kPa	102.77
257.7 K, 88.9 kPa	108.41
257.7 K, 104.4 kPa	107.85
257.7 K, 122.1 kPa	107.22
257.7 K, 146.2 kPa	106.37
257.7 K, 177.3 kPa	105.18
257.7 K, 206.4 kPa	104.1
257.7 K, 234.4 kPa	102.97
262.8 K, 90.4 kPa	109.57
262.8 K, 106.6 kPa	109.02
262.8 K, 124.5 kPa	108.41
262.8 K, 148.9 kPa	107.58
262.8 K, 180.9 kPa	106.46
262.8 K, 210.8 kPa	105.41
262.8 K, 239.7 kPa	104.33
262.8 K, 276.7 kPa	102.88
267.9 K, 91.9 kPa	110.71
267.9 K, 108.6 kPa	110.16
267.9 K, 126.8 kPa	109.58
267.9 K, 151.8 kPa	108.79
267.9 K, 184.5 kPa	107.7
267.9 K, 215.2 kPa	106.69
267.9 K, 245.1 kPa	105.66
267.9 K, 283.1 kPa	104.27
273.1 K, 93.6 kPa	111.83
273.1 K, 110.7 kPa	111.31
273.1 K, 129.5 kPa	110.76
273.1 K, 154.8 kPa	109.99
273.1 K, 188.5 kPa	108.94
273.1 K, 220.5 kPa	107.96
273.1 K, 249.8 kPa	106.97
273.1 K, 290.4 kPa	105.61
278.2 K, 95.1 kPa	112.94
278.2 K, 112.5 kPa	112.44
278.2 K, 131.9 kPa	111.89
278.2 K, 157.6 kPa	111.15
278.2 K, 192.1 kPa	110.13
278.2 K, 224.8 kPa	109.21
278.2 K, 255 kPa	108.24
278.2 K, 296.7 kPa	106.96
283.2 K, 96.7 kPa	114.02
283.2 K, 114.4 kPa	113.54
283.2 K, 134 kPa	113.01
283.2 K, 160.5 kPa	112.31
283.2 K, 195.7 kPa	111.31
283.2 K, 229.1 kPa	110.42
283.2 K, 260.1 kPa	109.49
283.2 K, 303 kPa	108.25
288.3 K, 98.2 kPa	115.1
288.3 K, 116.5 kPa	114.63
288.3 K, 136.2 kPa	114.12
288.3 K, 163.5 kPa	113.43
288.3 K, 199.4 kPa	112.48
288.3 K, 233.4 kPa	111.61
288.3 K, 265.3 kPa	110.72
288.3 K, 309.2 kPa	109.53
293.3 K, 100.1 kPa	116.16
293.3 K, 118.3 kPa	115.7
293.3 K, 118.5 kPa	115.72
293.3 K, 138.4 kPa	115.2
293.3 K, 138.6 kPa	115.22
293.3 K, 166.2 kPa	114.54
293.3 K, 166.5 kPa	114.55
293.3 K, 203 kPa	113.61
293.3 K, 203.4 kPa	113.63
293.3 K, 237.8 kPa	112.79
293.3 K, 270.3 kPa	111.92
293.3 K, 271.3 kPa	111.92
293.3 K, 315.4 kPa	110.77
298.4 K, 101.4 kPa	117.22
298.4 K, 120.3 kPa	116.79
298.4 K, 140.7 kPa	116.3
298.4 K, 169.3 kPa	115.65
298.4 K, 206.9 kPa	114.77
298.4 K, 242.3 kPa	113.97
298.4 K, 275.6 kPa	113.13
298.4 K, 321.7 kPa	112.02
303.4 K, 102.9 kPa	118.27
303.4 K, 122.2 kPa	117.85
303.4 K, 143.1 kPa	117.38
303.4 K, 172.2 kPa	116.75
303.4 K, 210.6 kPa	115.9
303.4 K, 246.6 kPa	115.1
303.4 K, 280.7 kPa	114.31
303.4 K, 327.8 kPa	113.24
308.5 K, 104.4 kPa	119.31
308.5 K, 124.1 kPa	118.88
308.5 K, 145.4 kPa	118.44
308.5 K, 175.2 kPa	117.83
308.5 K, 214.1 kPa	117
308.5 K, 251 kPa	116.24
308.5 K, 285.8 kPa	115.47
308.5 K, 334 kPa	114.43
313.5 K, 105.9 kPa	120.35
313.5 K, 126 kPa	119.93
313.5 K, 147.7 kPa	119.48
313.5 K, 177.9 kPa	118.9
313.5 K, 217.6 kPa	118.09
313.5 K, 255.2 kPa	117.36
313.5 K, 290.9 kPa	116.61
313.5 K, 340 kPa	115.6
318.5 K, 107.5 kPa	121.35
318.5 K, 127.9 kPa	120.96
318.5 K, 150.1 kPa	120.53
318.5 K, 180.8 kPa	119.96
318.5 K, 221.2 kPa	119.17
318.5 K, 259.7 kPa	118.47
318.5 K, 296 kPa	117.74
318.5 K, 346.1 kPa	116.75
323.5 K, 109.2 kPa	122.36
323.5 K, 130 kPa	121.97
323.5 K, 152.5 kPa	121.55
323.5 K, 183.8 kPa	121
323.5 K, 225 kPa	120.25
323.5 K, 264.1 kPa	119.56
323.5 K, 301.1 kPa	118.85
323.5 K, 352.2 kPa	117.91
